In general, IC50 refers to the midpoint of a concentration-inhibition curve.

A value given as a limit tells only on which side of the number the result lay.

This test deals with T1, human TRPV3 (Homo sapiens, UniProt Q8NET8).
T1 construct: expressed in transfected cells; host or cells: HEK293
T1 sequence (Q8NET8 1-790): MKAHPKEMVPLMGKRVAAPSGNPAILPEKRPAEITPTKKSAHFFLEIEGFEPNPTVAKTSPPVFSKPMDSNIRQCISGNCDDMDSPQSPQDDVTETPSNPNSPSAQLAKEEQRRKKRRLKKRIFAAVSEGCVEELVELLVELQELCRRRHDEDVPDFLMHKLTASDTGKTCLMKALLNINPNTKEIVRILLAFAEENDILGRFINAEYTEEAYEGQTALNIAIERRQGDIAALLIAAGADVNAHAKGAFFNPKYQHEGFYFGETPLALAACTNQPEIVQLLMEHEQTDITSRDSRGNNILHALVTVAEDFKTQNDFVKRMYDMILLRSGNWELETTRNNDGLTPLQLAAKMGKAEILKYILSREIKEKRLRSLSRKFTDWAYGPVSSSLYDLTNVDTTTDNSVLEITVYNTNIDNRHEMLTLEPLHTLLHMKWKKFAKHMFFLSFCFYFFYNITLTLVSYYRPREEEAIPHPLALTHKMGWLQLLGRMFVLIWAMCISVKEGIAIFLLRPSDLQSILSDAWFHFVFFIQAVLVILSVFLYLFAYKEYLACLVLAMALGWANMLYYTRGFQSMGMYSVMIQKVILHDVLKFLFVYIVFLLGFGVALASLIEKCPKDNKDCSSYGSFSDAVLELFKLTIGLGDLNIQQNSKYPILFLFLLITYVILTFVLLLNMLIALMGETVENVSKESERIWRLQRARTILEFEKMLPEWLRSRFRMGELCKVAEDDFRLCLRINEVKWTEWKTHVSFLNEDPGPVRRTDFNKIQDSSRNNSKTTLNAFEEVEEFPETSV
Kind of test: Calcium flux assay (FLIPR TETRA), recombinant HEK293 cells expressing TRPV3, 2-APB response. Format: cell-based. Particulars: 2-APB at its EC80. The method, then: (i) In Vitro Methods-Calcium Flux Assays:
Experiments were conducted using the FLIPR TETRA®. On the day prior to the experiment, recombinant HEK293 cells that stably express human and mouse TRPV3 were removed from tissue culture flasks and plated in growth medium at 20,000 cells/well into black-walled clear-bottom 384-well BIOCOAT™ poly-D-lysine assay plates (BD Biosciences, Bedford, Mass.) using a MULTIDROP® dispenser (ThermoScientific, Waltham, Mass.). On the day of the experiment, growth medium was removed, and the no-wash FLIPR® Calcium-4 dye (λEX=470-495 nm, λEM=515-575 nm; Molecular Devices, Sunnyvale, Calif.) was added to each well using the MULTIDROP® dispenser. Cells were incubated for 90-120 minutes in the dark. The compounds were dissolved in DMSO to prepare a 10 mM stock solution. The intensity of the fluorescence was captured and digitally transferred to an interfaced PC. The peak increase in fluorescence over baseline, measured in relative fluorescence units, was calculated and expressed as the percentage of the maximal 2-APB (2-aminoethoxyldiphenyl borate) response (in the absence of compound). The concentration of 2-APB corresponds to its EC80.
For orientation: Calcium assays in cells follow changes in intracellular calcium, usually with a dye or a luminescent sensor.
Regarding `COc1ncnc(OC)c1C(=O)Nc1nc(C(F)(F)F)c(CN2CC[C@@H](OC)C2)s1` [Example 60, 4,6-dimethoxy-N-[5-{[(3R)-3-methoxypyrrolidin-1-yl]methyl}-4-(trifluoromethyl)-1,3-thiazol-2-yl]pyrimidine-5-carboxamide], the IC50 lay within 500 to 1000 nM.
For `COc1ncnc(OC)c1C(=O)Nc1nc(C(F)(F)F)c(CN2CCC3(CC2)COC3)s1` [Example 61, 4,6-dimethoxy-N-[5-(2-oxa-7-azaspiro[3.5]non-7-ylmethyl)-4-(trifluoromethyl)-1,3-thiazol-2-yl]pyrimidine-5-carboxamide] the value was 100 to 500 nM; for `COc1ncnc(OC)c1C(=O)Nc1nc(C(F)(F)F)c(CN2CCCC3(COC3)C2)s1` [Example 62, 4,6-dimethoxy-N-[5-(2-oxa-6-azaspiro[3.5]non-6-ylmethyl)-4-(trifluoromethyl)-1,3-thiazol-2-yl]pyrimidine-5-carboxamide], 50 to 100 nM; for `COc1ncnc(OC)c1C(=O)Nc1nc(C(F)(F)F)c(Cl)s1` [Example 63, N-[5-chloro-4-(trifluoromethyl)-1,3-thiazol-2-yl]-4,6-dimethoxypyrimidine-5-carboxamide], less than 50 nM.
For `COc1ncnc(OC)c1C(=O)Nc1nc(C(F)(F)F)c(-c2cn(C)nc2C)s1` [Example 67, N-[5-(1,3-dimethyl-1H-pyrazol-4-yl)-4-(trifluoromethyl)-1,3-thiazol-2-yl]-4,6-dimethoxypyrimidine-5-carboxamide] the value was 50 to 100 nM; for `CCc1sc(NC(=O)c2c(OC)nc(C)nc2OC)nc1C(F)(F)F` [Example 69, N-[5-ethyl-4-(trifluoromethyl)-1,3-thiazol-2-yl]-4,6-dimethoxy-2-methylpyrimidine-5-carboxamide], 50 to 100 nM; for `CCOc1ncnc(OC)c1C(=O)Nc1nc(C(F)(F)F)c(CC)s1` [Example 70, 4-ethoxy-N-[5-ethyl-4-(trifluoromethyl)-1,3-thiazol-2-yl]-6-methoxypyrimidine-5-carboxamide], less than 50 nM.
As to `CCOc1ncnc(OCC)c1C(=O)Nc1nc(C(F)(F)F)c(CC)s1` [Example 71, 4,6-diethoxy-N-[5-ethyl-4-(trifluoromethyl)-1,3-thiazol-2-yl]pyrimidine-5-carboxamide], the IC50 is less than 50 nM.
The figure for `COc1ncnc(OC)c1C(=O)Nc1nc(-c2ccc(C(F)(F)F)cn2)cs1` [Example 73, 4,6-dimethoxy-N-{4-[5-(trifluoromethyl)pyridin-2-yl]-1,3-thiazol-2-yl}pyrimidine-5-carboxamide] is less than 50 nM.
The figure for `CCOC(=O)c1sc(NC(=O)c2c(OC)ncnc2OC)nc1-c1ccc(C(F)(F)F)cn1` [Example 75, ethyl 2-{[(4,6-dimethoxypyrimidin-5-yl)carbonyl]amino}-4-[5-(trifluoromethyl)pyridin-2-yl]-1,3-thiazole-5-carboxylate] is 100 to 500 nM.
For `COc1ncnc(OC)c1C(=O)Nc1nc(-c2ccc(C(F)(F)F)cn2)c(C=O)s1` [Example 76, N-{5-formyl-4-[5-(trifluoromethyl)pyridin-2-yl]-1,3-thiazol-2-yl}-4,6-dimethoxypyrimidine-5-carboxamide] the value was 100 to 500 nM; for `COc1ncnc(OC)c1C(=O)Nc1nc(-c2ccc(C(F)(F)F)cn2)c(CN2CCOCC2)s1` [Example 77, 4,6-dimethoxy-N-{5-(morpholin-4-ylmethyl)-4-[5-(trifluoromethyl)pyridin-2-yl]-1,3-thiazol-2-yl}pyrimidine-5-carboxamide], less than 50 nM.
In the case of `COc1ncnc(OC)c1C(=O)Nc1nc(-c2ccc(C(F)(F)F)cn2)c(CN2CCCC2)s1` [Example 78, 4,6-dimethoxy-N-{5-(pyrrolidin-1-ylmethyl)-4-[5-(trifluoromethyl)pyridin-2-yl]-1,3-thiazol-2-yl}pyrimidine-5-carboxamide], the IC50 fell in the range of 100 to 500 nM.
For `COc1ncnc(O)c1C(=O)Nc1nc(-c2ccc(C(F)(F)F)cn2)c(C(=O)N(C)C)s1` [Example 79, N-{5-(dimethylcarbamoyl)-4-[5-(trifluoromethyl)pyridin-2-yl]-1,3-thiazol-2-yl}-4-hydroxy-6-methoxypyrimidine-5-carboxamide] the value was more than 1000 nM; for `COc1ncnc(OC)c1C(=O)Nc1nc(-c2ccc(C(F)(F)F)cn2)c(CO)s1` [Example 80, N-{5-(hydroxymethyl)-4-[5-(trifluoromethyl)pyridin-2-yl]-1,3-thiazol-2-yl}-4,6-dimethoxypyrimidine-5-carboxamide], 50 to 100 nM.
For `COc1ncnc(OC)c1C(=O)Nc1nc(-c2ccc(OC(F)(F)F)cc2)c(C(C)O)s1` (stereo not drawn) [Example 82, N-{5-(1-hydroxyethyl)-4-[4-(trifluoromethoxy)phenyl]-1,3-thiazol-2-yl}-4,6-dimethoxypyrimidine-5-carboxamide] the value was 100 to 500 nM; for `COc1ncnc(OC)c1C(=O)Nc1nc(-c2ccc(C(F)(F)F)cn2)c(C(C)(C)O)s1` [Example 85, N-{5-(2-hydroxypropan-2-yl)-4-[5-(trifluoromethyl)pyridin-2-yl]-1,3-thiazol-2-yl}-4,6-dimethoxypyrimidine-5-carboxamide], 50 to 100 nM.
For `COCc1sc(NC(=O)c2c(OC)ncnc2OC)nc1-c1ccc(C(F)(F)F)cn1` [Example 86, 4,6-dimethoxy-N-{5-(methoxymethyl)-4-[5-(trifluoromethyl)pyridin-2-yl]-1,3-thiazol-2-yl}pyrimidine-5-carboxamide] the value was less than 50 nM; for `COc1ncnc(OC)c1C(=O)Nc1nc(-c2ccc(C(F)(F)F)cn2)c(C(C)=O)s1` [Example 87, N-{5-acetyl-4-[5-(trifluoromethyl)pyridin-2-yl]-1,3-thiazol-2-yl}-4,6-dimethoxypyrimidine-5-carboxamide], 50 to 100 nM; for `COc1ncnc(OC)c1C(=O)Nc1nc(-c2ccc(C(F)(F)F)cn2)c(/C(C)=N/O)s1` [Example 88, N-{5-[(1E)-N-hydroxyethanimidoyl]-4-[5-(trifluoromethyl)pyridin-2-yl]-1,3-thiazol-2-yl}-4,6-dimethoxypyrimidine-5-carboxamide], 50 to 100 nM.
Turning to `CO/N=C(\C)c1sc(NC(=O)c2c(OC)ncnc2OC)nc1-c1ccc(C(F)(F)F)cn1` [Example 89, 4,6-dimethoxy-N-{5-[(1E)-N-methoxyethanimidoyl]-4-[5-(trifluoromethyl)pyridin-2-yl]-1,3-thiazol-2-yl}pyrimidine-5-carboxamide], the IC50 was less than 50 nM.
For `COc1ncnc(OC)c1C(=O)Nc1nc(-c2ccc(C(F)(F)F)cn2)c(C2(C)OCCO2)s1` [Example 90, 4,6-dimethoxy-N-{5-(2-methyl-1,3-dioxolan-2-yl)-4-[5-(trifluoromethyl)pyridin-2-yl]-1,3-thiazol-2-yl}pyrimidine-5-carboxamide] the value was 50 to 100 nM; for `COc1ncnc(OC)c1C(=O)Nc1nc(-c2ccc(F)cn2)cs1` [Example 91, N-[4-(5-fluoropyridin-2-yl)-1,3-thiazol-2-yl]-4,6-dimethoxypyrimidine-5-carboxamide], 500 to 1000 nM.
For `COc1ncnc(OC)c1C(=O)Nc1nc(-c2ccc(OC(F)(F)F)cn2)cs1` [Example 92, 4,6-dimethoxy-N-{4-[5-(trifluoromethoxy)pyridin-2-yl]-1,3-thiazol-2-yl}pyrimidine-5-carboxamide] the value was less than 50 nM.

For the origin of these results see patent US20180243298A1, “TRPV3 MODULATORS” (AbbVie Inc., priority 2015, published 2018).
